According to patent US20130095194A1 (L'Air Liquide, Société Anonyme pour I'Etude et …, priority 2011, published 2013):

Tested on: neuropathic pain caused by oxaliplatin in rats
Assay: Randall-Selitto pain thresholds in rats given repeated intraperitoneal oxaliplatin (chemo-induced neuropathic pain model)
Description: A preclinical study in rats was carried out.
In order to mimic the clinical use as closely as possible, a series of 8 intraperitoneal injections of oxaliplatin were given every 3 to 4 days, as illustrated in FIG. 2. This model is well known in the literature and gives an account of chemo-induced neuropathic pain.
The pain thresholds were evaluated by means of a Randall-Selitto device by applying an increasing pressure to the paw of the rat until the animal lets out a cry. The corresponding weight in grams is then noted (the Y-axis in FIG. 2). Thus, the earlier the animal cries out, for a low weight, the more pain it has.

SMILES | hypersensitivity to pain (pain threshold curve versus control group A) (rats given oxaliplatin 2 mg/kg, gas/O2 (50%-50%) inhaled for 1 hour with each administration) | pain thresholds (Randall-Selitto, weight at which the animal cries out) (group B: oxaliplatin 2 mg/kg, 8 intraperitoneal injections every 3 to 4 days, with N2/O2 (50%-50%) control gas for 1 hour, control group A 200 g) | persistence of hypersensitivity to pain after the final administration of oxaliplatin (group B, final administration on D25, still present on D42)
[Xe] [xenon] | no sign of hypersensitivity to pain | – | –
O=C1[O][Pt]2([NH][C@@H]3CCCC[C@H]3[NH]2)[O]C1=O [oxaliplatin] | – | approximately 150 g | more than 2 weeks
